# Experimental data reported in US20230073777A1, “CYCLIC-AMP RESPONSE ELEMENT BINDING PROTEIN (CBP) AND/OR ADENOVIRAL E1A BINDING PROTEIN OF 300 KDA (P300) DEGRADATION COMPOUNDS AND METHODS OF USE” (CULLGEN (SHANGHAI), INC., priority 2019, published 2023).
# Test system: LNCaP cells
# Assay: LNCaP cell viability assay (CellTiter-Glo)
# Format: cell-based
# Details: Homo sapiens, 72 h, LNCaP prostate cancer cell viability inhibition, 3 days
# Method: LNCaP cells seeded in 96-well plates were treated with 10 μM GNE-781 or selected bivalent compounds, i.e. P-001, P-002, and P-019, following a 12-point 3-fold serial dilution. Three days after treatment, cell viability was determined using the CellTiter-Glo kit (Promega) following manufacturer's instructions. Cell viability was normalized to the mean values of 3 replicates of untreated cells. Dose-dependent response was analyzed following the least-squares non-linear regression method using the GraphPad Prism 5.0 software.
# LNCaP cells were treated with GNE-781 or selected bivalent compounds for 3 days at indicated concentrations following a 3-fold serial dilution.
# Cells were seeded at a density of 5000 cells per well in 96-well assay plates and treated with test compounds following a 12-point 3-fold serial dilution. Three days later, cell viability was determined using the CellTiter-Glo assay kit according to the manufacturer's instructions. The dose-response curves were determined and IC50 values were calculated using the GraphPad Prism software following a nonlinear regression (least squares fit) method.
SMILES,IC50 (CellTiter-Glo (Table 3)) [nM],IC50 (CellTiter-Glo (Table 2)) [nM]
"CNC(=O)N1CCc2c(c(N3CCCc4cc(-c5cnn(C)c5)c(C(F)F)cc43)nn2C2CCN(CCN3CCN(Cc4cccc5c4C(=O)N(C4CCC(=O)NC4=O)C5=O)CC3)CC2)C1 (stereo not drawn) [P-144, 3-(7-(Difluoromethyl)-6-(1-methyl-1H-pyrazol-4-yl)-3,4-dihydroquinolin-1(2H)-yl)-1-(1-(2-(4-((2-(2,6-dioxopiperidin-3-yl)-1,3-dioxoisoindolin-4-yl)methyl)piperazin-1-yl)ethyl)piperidin-4-yl)-N-methyl-1,4,6,7-tetrahydro-5H-pyrazolo[4,3-c]pyridine-5-carboxamide]",> 1000,
"CNC(=O)N1CCc2c(c(N3CCCc4cc(-c5cnn(C)c5)c(C(F)F)cc43)nn2C2CCN(C(=O)CN3CCC(C#Cc4cccc5c4C(=O)N(C4CCC(=O)NC4=O)C5=O)CC3)CC2)C1 (stereo not drawn) [P-103, 3-(7-(Difluoromethyl)-6-(1-methyl-1H-pyrazol-4-yl)-3,4-dihydroquinolin-1(2H)-yl)-1-(1-(2-(4-((2-(2,6-dioxopiperidin-3-yl)-1,3-dioxoisoindolin-4-yl)ethynyl)piperidin-1-yl)acetyl)piperidin-4-yl)-N-methyl-1,4,6,7-tetrahydro-5H-pyrazolo[4,3-c]pyridine-5-carboxamide]",146,
"CC(=O)N1CCc2c(c(N3CCCc4cc(-c5cnn(C)c5)c(C(F)F)cc43)nn2C2CCN(C3CCN(CCOc4cccc5c4C(=O)N(C4CCC(=O)NC4=O)C5=O)CC3)CC2)C1 (stereo not drawn) [P-134, 4-(2-(4-(5-Acetyl-3-(7-(difluoromethyl)-6-(1-methyl-1H-pyrazol-4-yl)-3,4-dihydroquinolin-1(2H)-yl)-4,5,6,7-tetrahydro-1H-pyrazolo[4,3-c]pyridin-1-yl)-[1,4′-bipiperidin]-1′-yl)ethoxy)-2-(2,6-dioxopiperidin-3-yl)isoindoline-1,3-dione]",> 500,
"CC(=O)N1CCc2c(c(N3CCCc4cc(-c5cnn(C)c5)c(C(F)F)cc43)nn2C2CCN(C3CN(CCCOc4cccc5c4C(=O)N(C4CCC(=O)NC4=O)C5=O)C3)CC2)C1 (stereo not drawn) [P-140, 4-(3-(3-(4-(5-Acetyl-3-(7-(difluoromethyl)-6-(1-methyl-1H-pyrazol-4-yl)-3,4-dihydroquinolin-1(2H)-yl)-4,5,6,7-tetrahydro-1H-pyrazolo[4,3-c]pyridin-1-yl)piperidin-1-yl)azetidin-1-yl)propoxy)-2-(2,6-dioxopiperidin-3-yl)isoindoline-1,3-dione]",> 500,
"CC(=O)N1CCc2c(c(N3CCCc4cc(-c5cnn(C)c5)c(C(F)F)cc43)nn2C2CCN(C3CCN(CCCOc4cccc5c4C(=O)N(C4CCC(=O)NC4=O)C5=O)CC3)CC2)C1 (stereo not drawn) [P-139, 4-(3-(4-(5-Acetyl-3-(7-(difluoromethyl)-6-(1-methyl-1H-pyrazol-4-yl)-3,4-dihydroquinolin-1(2H)-yl)-4,5,6,7-tetrahydro-1H-pyrazolo[4,3-c]pyridin-1-yl)-[1,4′-bipiperidin]-1′-yl)propoxy)-2-(2,6-dioxopiperidin-3-yl)isoindoline-1,3-dione]",> 500,

# Results, then the compound that gave them:
IC50 (CellTiter-Glo (Table 3)) [nM],IC50 (CellTiter-Glo (Table 2)) [nM],SMILES
> 10000,,"CNC(=O)N1CCc2c(c(N3CCCc4cc(-c5cnn(CC(=O)NCCOCCOCCOCCOCCOCCC(=O)N[C@H](C(=O)N6C[C@H](O)CC6C(=O)NCc6ccc(-c7scnc7C)cc6)C(C)(C)C)c5)c(C(F)F)cc43)nn2C2CCOCC2)C1 (stereo in doubt) [P-082, 3-(7-(Difluoromethyl)-6-(1-((S)-23-((2S,4R)-4-hydroxy-2-((4-(4-methylthiazol-5-yl)benzyl)carbamoyl)pyrrolidine-1-carbonyl)-24,24-dimethyl-2,21-dioxo-6,9,12,15,18-pentaoxa-3,22-diazapentacosyl)-1H-pyrazol-4-yl)-3,4-dihydroquinolin-1(2H)-yl)-N-methyl-1-(tetrahydro-2H-pyran-4-yl)-1,4,6,7-tetrahydro-5H-pyrazolo[4,3-c]pyridine-5-carboxamide]"
,105,CNC(=O)N1CCc2c(c(N3CCCc4cc(-c5cnn(C)c5)c(C(F)F)cc43)nn2C2CCN(C(=O)CNc3cccc4c3C(=O)N(C3CCC(=O)NC3=O)C4=O)CC2)C1 (stereo not drawn) [P-013]
> 500,,"CC(=O)N1CCc2c(c(N3CCCc4cc(-c5cnn(C)c5)c(C(F)F)cc43)nn2C2CCN(CCCCCC(=O)Nc3cccc4c3C(=O)N(C3CCC(=O)NC3=O)C4=O)CC2)C1 (stereo not drawn) [P-136, 6-(4-(5-Acetyl-3-(7-(difluoromethyl)-6-(1-methyl-1H-pyrazol-4-yl)-3,4-dihydroquinolin-1(2H)-yl)-4,5,6,7-tetrahydro-1H-pyrazolo[4,3-c]pyridin-1-yl)piperidin-1-yl)-N-(2-(2,6-dioxopiperidin-3-yl)-1,3-dioxoisoindolin-4-yl)hexanamide]"
1070,,"CNC(=O)N1CCc2c(c(N3CCCc4cc(-c5cnn(C)c5)c(C(F)F)cc43)nn2C2CCN(CCCCCC#Cc3cccc4c3C(=O)N(C3CCC(=O)NC3=O)C4=O)CC2)C1 (stereo not drawn) [P-098, 3-(7-(Difluoromethyl)-6-(1-methyl-1H-pyrazol-4-yl)-3,4-dihydroquinolin-1(2H)-yl)-1-(1-(7-(2-(2,6-dioxopiperidin-3-yl)-1,3-dioxoisoindolin-4-yl)hept-6-yn-1-yl)piperidin-4-yl)-N-methyl-1,4,6,7-tetrahydro-5H-pyrazolo[4,3-c]pyridine-5-carboxamide]"
> 10000,,"CNC(=O)N1CCc2c(c(N3CCCc4cc(-c5cnn(CC(=O)NCCOCCOCC(=O)N[C@H](C(=O)N6C[C@H](O)CC6C(=O)NCc6ccc(-c7scnc7C)cc6)C(C)(C)C)c5)c(C(F)F)cc43)nn2C2CCOCC2)C1 (stereo in doubt) [P-083, 3-(7-(Difluoromethyl)-6-(1-((S)-13-((2S,4R)-4-hydroxy-2-((4-(4-methylthiazol-5-yl)benzyl)carbamoyl)pyrrolidine-1-carbonyl)-14,14-dimethyl-2,11-dioxo-6,9-dioxa-3,12-diazapentadecyl)-1H-pyrazol-4-yl)-3,4-dihydroquinolin-1(2H)-yl)-N-methyl-1-(tetrahydro-2H-pyran-4-yl)-1,4,6,7-tetrahydro-5H-pyrazolo[4,3-c]pyridine-5-carboxamide]"
> 10000,,"CNC(=O)N1CCc2c(c(N3CCCc4cc(-c5cnn(CC(=O)NCCOCCC(=O)N[C@H](C(=O)N6C[C@H](O)CC6C(=O)NCc6ccc(-c7scnc7C)cc6)C(C)(C)C)c5)c(C(F)F)cc43)nn2C2CCOCC2)C1 (stereo in doubt) [P-074, 3-(7-(Difluoromethyl)-6-(1-(2-((2-(3-(((S)-1-((2S,4R)-4-hydroxy-2-((4-(4-methylthiazol-5-yl)benzyl)carbamoyl)pyrrolidin-1-yl)-3,3-dimethyl-1-oxobutan-2-yl)amino)-3-oxopropoxy)ethyl)amino)-2-oxoethyl)-1H-pyrazol-4-yl)-3,4-dihydroquinolin-1(2H)-yl)-N-methyl-1-(tetrahydro-2H-pyran-4-yl)-1,4,6,7-tetrahydro-5H-pyrazolo[4,3-c]pyridine-5-carboxamide]"
> 1000,,"CNC(=O)N1CCc2c(c(N3CCCc4cc(-c5cnn(C)c5)c(C(F)F)cc43)nn2C2CCN(C(=O)CN3CCC(Nc4cccc5c4C(=O)N(C4CCC(=O)NC4=O)C5=O)CC3)CC2)C1 (stereo not drawn) [P-101, 3-(7-(Difluoromethyl)-6-(1-methyl-1H-pyrazol-4-yl)-3,4-dihydroquinolin-1(2H)-yl)-1-(1-(2-(4-((2-(2,6-dioxopiperidin-3-yl)-1,3-dioxoisoindolin-4-yl)amino)piperidin-1-yl)acetyl)piperidin-4-yl)-N-methyl-1,4,6,7-tetrahydro-5H-pyrazolo[4,3-c]pyridine-5-carboxamide]"
